Assays:
U-937 [1] = assay: Growth inhibition of human U937 cells at 50 uM after 72 hrs by MTT assay; type: functional; conditions: U-937, 72 h, read-out: GI
K562 [2] = assay: Growth inhibition of human K562 cells at 50 uM after 72 hrs by MTT assay; type: functional; conditions: K562, 72 h, read-out: GI
[3] = target: DNMT3B-DNMT3L complex (Homo sapiens) (UniProt Q9UBC3+Q9UJW3); assay: Inhibition of DNMT3B/3L (unknown origin) at 100 uM using biotinylated DNA oligonucleotides as substrate preincubated for 15 mins followed by substrate/[3H]-SAM addition measured after 4 hrs by liquid scintillation counting analysis; type: protein-complex assay
Sequence of DNMT3B-DNMT3L complex (Homo sapiens) (Q9UJW3 whole entry, looked up, other chains not shown): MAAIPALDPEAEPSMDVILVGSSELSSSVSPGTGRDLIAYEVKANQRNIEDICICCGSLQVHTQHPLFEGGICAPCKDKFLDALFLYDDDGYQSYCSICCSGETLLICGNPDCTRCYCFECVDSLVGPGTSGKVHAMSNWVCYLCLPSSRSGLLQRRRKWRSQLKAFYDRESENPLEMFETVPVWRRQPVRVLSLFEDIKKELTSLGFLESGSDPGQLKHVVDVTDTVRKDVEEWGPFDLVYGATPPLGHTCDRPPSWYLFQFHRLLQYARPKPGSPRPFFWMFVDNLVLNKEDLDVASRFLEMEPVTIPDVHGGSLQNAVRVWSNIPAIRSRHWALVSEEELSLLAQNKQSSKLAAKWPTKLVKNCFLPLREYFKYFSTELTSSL

[4] = target: DNMT3A2/3L complex (Homo sapiens) (UniProt Q9Y6K1+Q9UJW3); assay: Inhibition of DNMT3A/3L (unknown origin) at 100 uM using biotinylated DNA oligonucleotides as substrate preincubated for 15 mins followed by substrate/[3H]-SAM addition measured after 4 hrs by liquid scintillation counting analysis; type: protein-complex assay
Sequence of DNMT3A2/3L complex (Homo sapiens) (Q9UJW3 whole entry, looked up): as the sequence (Q9UJW3 whole entry, looked up, other chains not shown) above
Sequence of DNMT3A2/3L complex (Homo sapiens) (Q9Y6K1 whole entry, looked up): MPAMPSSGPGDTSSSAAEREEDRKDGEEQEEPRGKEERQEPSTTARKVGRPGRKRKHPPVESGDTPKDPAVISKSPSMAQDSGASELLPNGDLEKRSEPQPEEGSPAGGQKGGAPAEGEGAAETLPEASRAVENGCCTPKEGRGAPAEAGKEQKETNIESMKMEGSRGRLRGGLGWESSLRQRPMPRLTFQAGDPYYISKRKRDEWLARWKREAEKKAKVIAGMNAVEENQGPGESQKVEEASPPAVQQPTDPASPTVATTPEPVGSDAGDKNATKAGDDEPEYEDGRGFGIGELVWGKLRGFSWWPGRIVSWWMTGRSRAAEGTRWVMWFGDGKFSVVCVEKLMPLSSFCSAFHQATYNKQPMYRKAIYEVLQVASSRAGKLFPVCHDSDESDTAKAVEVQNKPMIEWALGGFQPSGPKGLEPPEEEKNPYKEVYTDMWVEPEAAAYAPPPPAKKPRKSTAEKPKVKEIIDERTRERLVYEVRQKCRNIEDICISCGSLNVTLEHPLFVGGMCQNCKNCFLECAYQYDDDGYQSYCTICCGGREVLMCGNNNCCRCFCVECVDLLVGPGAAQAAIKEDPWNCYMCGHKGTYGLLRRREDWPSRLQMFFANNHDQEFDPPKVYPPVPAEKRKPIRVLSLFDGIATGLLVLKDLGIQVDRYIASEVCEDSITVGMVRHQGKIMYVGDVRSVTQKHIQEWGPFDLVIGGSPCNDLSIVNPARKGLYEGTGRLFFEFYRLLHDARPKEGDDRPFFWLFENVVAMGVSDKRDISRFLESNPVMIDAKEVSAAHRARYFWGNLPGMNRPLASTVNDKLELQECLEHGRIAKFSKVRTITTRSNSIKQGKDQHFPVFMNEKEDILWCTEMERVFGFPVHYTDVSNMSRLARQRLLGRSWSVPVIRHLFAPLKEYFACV

[5] = target: DNA (cytosine-5)-methyltransferase 1 (Homo sapiens) (UniProt P26358); assay: Inhibition of DNMT1 (unknown origin) at 100 uM using poly(dI-dC).poly(dI-dC) as substrate preincubated for 15 mins followed by substrate/[3H]-SAM addition measured after 120 mins by liquid scintillation counting analysis
Sequence of DNA (cytosine-5)-methyltransferase 1 (Homo sapiens) (P26358 whole entry): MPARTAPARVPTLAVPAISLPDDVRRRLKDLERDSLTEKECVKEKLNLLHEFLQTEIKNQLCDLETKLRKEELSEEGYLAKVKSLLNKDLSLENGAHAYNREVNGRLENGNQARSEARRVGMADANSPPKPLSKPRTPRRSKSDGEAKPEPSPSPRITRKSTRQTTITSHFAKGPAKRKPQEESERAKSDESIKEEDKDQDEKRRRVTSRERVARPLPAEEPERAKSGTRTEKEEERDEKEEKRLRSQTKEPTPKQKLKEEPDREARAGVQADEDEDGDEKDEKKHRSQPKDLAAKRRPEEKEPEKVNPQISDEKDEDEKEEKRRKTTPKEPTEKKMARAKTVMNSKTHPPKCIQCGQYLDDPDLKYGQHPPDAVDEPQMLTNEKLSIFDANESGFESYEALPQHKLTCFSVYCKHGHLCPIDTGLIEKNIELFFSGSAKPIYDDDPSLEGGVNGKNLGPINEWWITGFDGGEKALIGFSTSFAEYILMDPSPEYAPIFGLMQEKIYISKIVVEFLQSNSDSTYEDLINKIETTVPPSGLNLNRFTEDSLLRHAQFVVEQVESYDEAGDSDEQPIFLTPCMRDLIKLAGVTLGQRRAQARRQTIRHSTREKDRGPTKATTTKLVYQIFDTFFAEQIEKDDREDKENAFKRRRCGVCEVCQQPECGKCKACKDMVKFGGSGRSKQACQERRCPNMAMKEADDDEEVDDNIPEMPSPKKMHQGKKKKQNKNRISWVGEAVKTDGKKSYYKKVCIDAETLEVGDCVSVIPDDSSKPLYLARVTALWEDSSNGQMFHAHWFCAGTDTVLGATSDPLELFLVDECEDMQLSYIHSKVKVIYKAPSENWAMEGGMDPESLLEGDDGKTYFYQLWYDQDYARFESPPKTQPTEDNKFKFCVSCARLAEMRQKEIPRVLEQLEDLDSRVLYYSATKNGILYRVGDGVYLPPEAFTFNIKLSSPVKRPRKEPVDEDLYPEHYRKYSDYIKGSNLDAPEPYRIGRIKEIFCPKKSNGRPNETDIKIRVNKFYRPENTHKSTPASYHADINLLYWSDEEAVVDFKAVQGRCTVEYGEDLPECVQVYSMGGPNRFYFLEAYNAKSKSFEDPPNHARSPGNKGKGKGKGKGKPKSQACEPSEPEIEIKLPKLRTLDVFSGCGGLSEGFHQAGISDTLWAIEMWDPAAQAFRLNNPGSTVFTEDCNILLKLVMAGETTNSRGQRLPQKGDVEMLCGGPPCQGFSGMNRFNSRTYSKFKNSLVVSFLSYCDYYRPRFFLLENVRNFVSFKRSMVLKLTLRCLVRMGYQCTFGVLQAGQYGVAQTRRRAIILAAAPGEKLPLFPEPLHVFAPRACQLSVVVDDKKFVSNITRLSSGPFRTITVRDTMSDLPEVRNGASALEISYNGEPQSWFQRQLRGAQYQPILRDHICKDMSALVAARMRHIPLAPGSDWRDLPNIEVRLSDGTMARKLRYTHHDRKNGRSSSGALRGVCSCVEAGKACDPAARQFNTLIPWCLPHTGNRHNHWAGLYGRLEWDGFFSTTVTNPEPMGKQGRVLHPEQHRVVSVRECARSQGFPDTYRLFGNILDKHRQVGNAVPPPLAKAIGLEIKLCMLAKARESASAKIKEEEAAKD

[6] = target: T1, Protein deacetylase HDAC6 (Homo sapiens, UniProt Q9UBN7); assay: Inhibition of HDAC6 (unknown origin) preincubated for 15 mins followed by substrate addition measured after 60 mins by fluorescence assay
T1 sequence (Q9UBN7 whole entry): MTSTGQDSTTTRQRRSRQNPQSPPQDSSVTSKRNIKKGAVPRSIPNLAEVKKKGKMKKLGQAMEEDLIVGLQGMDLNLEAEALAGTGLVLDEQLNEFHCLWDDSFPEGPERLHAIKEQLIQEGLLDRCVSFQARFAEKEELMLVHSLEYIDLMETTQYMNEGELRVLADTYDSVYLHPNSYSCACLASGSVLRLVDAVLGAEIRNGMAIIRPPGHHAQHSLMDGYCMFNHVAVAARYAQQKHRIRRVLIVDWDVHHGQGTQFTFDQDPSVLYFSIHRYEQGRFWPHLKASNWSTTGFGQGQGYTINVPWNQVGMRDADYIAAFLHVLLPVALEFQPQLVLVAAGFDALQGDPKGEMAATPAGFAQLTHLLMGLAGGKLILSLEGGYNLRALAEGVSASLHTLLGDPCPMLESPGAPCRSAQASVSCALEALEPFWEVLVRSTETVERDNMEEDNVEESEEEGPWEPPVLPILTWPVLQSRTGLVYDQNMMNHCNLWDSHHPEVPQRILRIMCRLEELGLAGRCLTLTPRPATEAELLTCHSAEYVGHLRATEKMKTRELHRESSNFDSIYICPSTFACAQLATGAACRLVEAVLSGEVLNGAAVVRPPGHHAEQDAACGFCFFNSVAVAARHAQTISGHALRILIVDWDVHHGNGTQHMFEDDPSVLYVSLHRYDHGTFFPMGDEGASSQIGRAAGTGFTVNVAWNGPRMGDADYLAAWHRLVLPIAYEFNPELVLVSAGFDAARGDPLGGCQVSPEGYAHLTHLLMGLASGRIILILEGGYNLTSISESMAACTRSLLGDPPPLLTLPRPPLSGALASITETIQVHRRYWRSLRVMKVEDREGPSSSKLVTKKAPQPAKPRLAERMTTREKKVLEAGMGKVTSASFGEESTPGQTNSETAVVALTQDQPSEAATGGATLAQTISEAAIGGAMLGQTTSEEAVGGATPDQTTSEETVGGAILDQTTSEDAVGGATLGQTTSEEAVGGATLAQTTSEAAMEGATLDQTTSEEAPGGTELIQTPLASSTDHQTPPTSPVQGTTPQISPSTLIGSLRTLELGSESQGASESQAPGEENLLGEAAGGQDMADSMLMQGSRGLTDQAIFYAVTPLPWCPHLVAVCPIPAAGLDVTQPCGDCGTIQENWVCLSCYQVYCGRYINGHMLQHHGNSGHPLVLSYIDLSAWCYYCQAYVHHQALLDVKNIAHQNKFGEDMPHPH

K562 [7] = assay: Antiproliferative activity against human K562 cells after 72 hrs by MTT assay; type: functional, cell-based; conditions: K562, 72 h
Histone deacetylase 1 = Histone deacetylase 1 (Homo sapiens, UniProt Q13547); assay: Inhibition of HDAC1 (unknown origin) preincubated for 15 mins followed by substrate addition measured after 60 mins by fluorescence assay
Sequence of Histone deacetylase 1 (Q13547 whole entry): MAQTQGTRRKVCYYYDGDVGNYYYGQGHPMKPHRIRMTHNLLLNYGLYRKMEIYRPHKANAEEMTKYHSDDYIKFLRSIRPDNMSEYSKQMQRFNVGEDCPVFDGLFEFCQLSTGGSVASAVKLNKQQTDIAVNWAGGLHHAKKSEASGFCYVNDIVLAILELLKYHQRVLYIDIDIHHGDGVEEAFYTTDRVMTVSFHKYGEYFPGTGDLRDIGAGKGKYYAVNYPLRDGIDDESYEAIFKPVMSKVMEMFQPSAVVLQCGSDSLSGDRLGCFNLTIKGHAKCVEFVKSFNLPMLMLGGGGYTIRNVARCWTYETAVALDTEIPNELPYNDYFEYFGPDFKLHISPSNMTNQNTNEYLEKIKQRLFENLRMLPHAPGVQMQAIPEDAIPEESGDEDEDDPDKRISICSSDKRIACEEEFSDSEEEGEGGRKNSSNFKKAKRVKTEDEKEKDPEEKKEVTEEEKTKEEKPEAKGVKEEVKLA

U-937 [8] = assay: Antiproliferative activity against human U937 cells after 72 hrs by MTT assay; type: functional, cell-based; conditions: U-937, 72 h
Salmonella typhimurium [9] = assay: Genotoxicity in Salmonella typhimurium TA98 at 50 times IC50 by Ames test; type: toxicity; conditions: salmonella enterica subsp. enterica serovar typhimurium
Salmonella typhimurium [10] = assay: Genotoxicity in Salmonella typhimurium TA1535 at 50 times IC50 by Ames test; type: toxicity; conditions: salmonella enterica subsp. enterica serovar typhimurium
Salmonella typhimurium [11] = assay: Genotoxicity in Salmonella typhimurium TA102 at 50 times IC50 by Ames test; type: toxicity; conditions: salmonella enterica subsp. enterica serovar typhimurium
Salmonella typhimurium [12] = assay: Genotoxicity in Salmonella typhimurium TA97 at 50 times IC50 by Ames test; type: toxicity; conditions: salmonella enterica subsp. enterica serovar typhimurium
U-937 [13] = assay: Induction of apoptosis in human U937 cells assessed as early apoptotic cells at 0.5 uM after 48 hrs by Annexin V-FITC/PI staining based flow cytometry (reference value: 0.140%); type: functional
HepG2 = assay: Antiproliferative activity against human HepG2 cells after 72 hrs by MTT assay; type: functional, cell-based; conditions: HepG2, 72 h
U-937 [14] = assay: Induction of apoptosis in human U937 cells assessed as early apoptotic cells at 2.5 uM after 48 hrs by Annexin V-FITC/PI staining based flow cytometry (reference value: 0.140%); type: functional
U-937 [15] = assay: Induction of apoptosis in human U937 cells assessed as viable cells at 2.5 uM after 48 hrs by Annexin V-FITC/PI staining based flow cytometry (reference value: 99.6%); type: functional; conditions: U-937, 48 h, read-out: Activity
U-937 [16] = assay: Induction of apoptosis in human U937 cells assessed as viable cells at 0.5 uM after 48 hrs by Annexin V-FITC/PI staining based flow cytometry (reference value: 99.6%); type: functional; conditions: U-937, 48 h, read-out: Activity
U-937 [17] = assay: Induction of apoptosis in human U937 cells assessed as necrotic cells at 2.5 uM after 48 hrs by Annexin V-FITC/PI staining based flow cytometry (reference value: 0%); type: functional
U-937 [18] = assay: Induction of apoptosis in human U937 cells assessed as viable cells at 1 uM after 48 hrs by Annexin V-FITC/PI staining based flow cytometry (reference value: 99.6%); type: functional; conditions: U-937, 48 h, read-out: Activity
HCT-116 = assay: Antiproliferative activity against human HCT116 cells after 72 hrs by MTT assay; type: functional, cell-based; conditions: HCT-116, 72 h
U-937 [19] = assay: Induction of apoptosis in human U937 cells assessed as necrotic cells at 0.5 uM after 48 hrs by Annexin V-FITC/PI staining based flow cytometry (reference value: 0%); type: functional
U-937 [20] = assay: Induction of apoptosis in human U937 cells assessed as necrotic cells at 1 uM after 48 hrs by Annexin V-FITC/PI staining based flow cytometry (reference value: 0%); type: functional
U-937 [21] = assay: Induction of apoptosis in human U937 cells assessed as early apoptotic cells at 1 uM after 48 hrs by Annexin V-FITC/PI staining based flow cytometry (reference value: 0.140%); type: functional
U-937 [22] = assay: Induction of apoptosis in human U937 cells assessed as late apoptotic cells at 2.5 uM after 48 hrs by Annexin V-FITC/PI staining based flow cytometry (reference value: 0.279%); type: functional
HeLa = assay: Antiproliferative activity against human HeLa cells after 72 hrs by MTT assay; type: functional, cell-based
A549 = assay: Antiproliferative activity against human A549 cells after 72 hrs by MTT assay; type: functional, cell-based; conditions: A549, 72 h
U-937 [23] = assay: Induction of apoptosis in human U937 cells assessed as late apoptotic cells at 0.5 uM after 48 hrs by Annexin V-FITC/PI staining based flow cytometry (reference value: 0.279%); type: functional
U-937 [24] = assay: Induction of apoptosis in human U937 cells assessed as late apoptotic cells at 1 uM after 48 hrs by Annexin V-FITC/PI staining based flow cytometry (reference value: 0.279%); type: functional

SMILES	inhibition [3] [%]	inhibition [4] [%]	inhibition [5] [%]	IC50 [6] [nM]	IC50 (K562 [7]) [nM]	IC50 (Histone deacetylase 1) [nM]	IC50 (U-937 [8]) [nM]	Activity (Salmonella typhimurium [9])	Activity (Salmonella typhimurium [10])	Activity (Salmonella typhimurium [11])	Activity (Salmonella typhimurium [12])	other results
COc1ccc(Cl)cc1C(=O)NCCc1ccc(CCC(=O)O)cc1	6.11	42	34 to 34.1									inhibition of growth at 50 µM (U-937 [1]): 15%; inhibition of growth at 50 µM (K562 [2]): 20%
O=C(/C=C/c1ccc(CCNC(=O)c2ccc3[nH]cnc3c2)cc1)NO	30.8	41 to 41.2	47 to 47.4	4.68	31700	7.8						inhibition of growth at 50 µM (U-937 [1]): 45%
O=C(/C=C/c1ccc(CCNC(=O)c2cncc(F)c2)cc1)NO	1.9	0.9	44 to 44.2	35.9	7060	25.7	4590	Non-Toxic	Non-Toxic	Non-Toxic	Non-Toxic	
COc1ccc(Cl)cc1C(=O)NCCc1ccc(CCC(=O)NO)cc1	8.26	4.64 to 5	23.8 to 24	41.4	6230	72.3	3950	Non-Toxic	Non-Toxic	Toxic	Non-Toxic	
O=C(/C=C/c1ccc(CCNC(=O)c2c[nH]c3ncccc23)cc1)NO	7.23	21	28.1	8.35	18000	14.3	17800					

Further lines, with some results ahead:

inhibition [3] [%]	inhibition [4] [%]	inhibition [5] [%]	IC50 [6] [nM]	IC50 (K562 [7]) [nM]	IC50 (Histone deacetylase 1) [nM]	IC50 (U-937 [8]) [nM]	SMILES	Activity (Salmonella typhimurium [9])	Activity (Salmonella typhimurium [10])	Activity (Salmonella typhimurium [11])	Activity (Salmonella typhimurium [12])	other results
9.89	-1.03	18.4	7.1	1120	7.18	520	O=C(/C=C/c1ccc(CCNC(=O)c2ccc3c(c2)OCO3)cc1)NO	Non-Toxic	Toxic	Non-Toxic	Non-Toxic	
				1160		1560	Cc1cc(Nc2ccc(NC(=O)c3ccc(Nc4ccnc5ccccc45)cc3)cc2)nc(N)n1					
15.8	11.2	27.9	10.7	5180	8.1	10700	COc1cc(C(=O)NCCc2ccc(/C=C/C(=O)NO)cc2)ccc1O					
10.6	3.98	39.8 to 40	12	2750	19.2	190	COc1ccc(Cl)cc1C(=O)NCCc1ccc(/C=C/C(=O)NO)cc1	Non-Toxic	Non-Toxic	Non-Toxic	Non-Toxic	Activity (U-937 [13]): 6.9%; IC50 (HepG2): 5430 nM; Activity (U-937 [14]): 41.8%; viability at 2.5 µM (U-937 [15]): 0.365%; viability at 0.5 µM (U-937 [16]): 84%; Activity (U-937 [17]): 0.02%; viability at 1 µM (U-937 [18]): 52.8%; IC50 (HCT-116): 5390 nM; Activity (U-937 [19]): 0.02%; Activity (U-937 [20]): 0.942%; Activity (U-937 [21]): 10.1%; Activity (U-937 [22]): 57.8%; IC50 (HeLa): 10600 nM; IC50 (A549): 12500 nM; Activity (U-937 [23]): 9.11%; Activity (U-937 [24]): 36.4%
3.09	1.97	36 to 36.4	39.9	3650	34.6	1070	COc1ccc(Cl)cc1C(=O)NCCc1cccc(/C=C/C(=O)NO)c1	Non-Toxic	Non-Toxic	Non-Toxic	Non-Toxic	
28 to 28.1	-0.26	47.9 to 48	11.9	1780	11.3	2970	O=C(/C=C/c1ccc(CCNC(=O)c2ccc3c(c2)OCCO3)cc1)NO	Non-Toxic	Non-Toxic	Non-Toxic	Non-Toxic	
50 to 50.1	19.1	22.9	5.28	3160	4	1260	O=C(/C=C/c1ccc(CCNC(=O)c2ccc3ncccc3c2)cc1)NO	Toxic	Non-Toxic	Non-Toxic	Non-Toxic	

— ChEMBL document CHEMBL4033641, “Design, synthesis and anticancer potential of NSC-319745 hydroxamic acid derivatives as DNMT and HDAC inhibitors” (Eur J Med Chem, 2017)
